Reference: patent US9540397B2, “BACE1 inhibitors” (Hoffmann-La Roche Inc., priority 2014, dated 2017)
Blank lines part the entries; values can stand above or below the compound they belong to.

Columns and labels:
[1] = molecular target: T1, BACE1 (Homo sapiens, UniProt P56817); assay: Cellular Aβ-lowering assay (Abeta 40 AlphaLISA, HEK293 APP cells); assay type: cell-based; details: 18-20 hrs incubation, Aβ40 in culture supernatant, read-out: BACE1 cell act. Aβ40 IC50
T1 construct: endogenous in cells; host or cells: HEK293 APP cells
Description: Cellular Aβ-lowering assay:
The Abeta 40 AlphaLISA Assay can be used. The HEK293 APP cells were seeded in 96 well Microtiter plates in cell culture medium (Iscove's, plus 10% (v/v) fetal bovine serum, penicillin/streptomycin) to about 80% confluency and the compounds were added at a 3× concentration in ⅓ volume of culture medium (final DMSO concentration was kept at 1% v/v). After 18-20 hrs incubation at 37° C. and 5% CO2 in a humidified incubator, the culture supernatants were harvested for the determination of AP 40 concentrations using Perkin-Elmer Human Amyloid beta 1-40 (high specificity) Kit (Cat#AL275C).
In a Perkin-Elmer White Optiplate-384 (Cat#6007290), 2 ul culture supernatants were combined with 2 μl of a 10× AlphaLISA Anti-hAβ Acceptor beads+Biotinylated Antibody Anti-Aβ 1-40 Mix ([…]/5 nM). After 1 hour room temperature incubation, 16 μl of a 1.25× preparation of Streptavidin (SA) Donor beads (25 μg/mL) were added and incubated for 30 minutes in the Dark. Light Emission at 615 nm was then recorded using EnVision-Alpha Reader. Levels of Aβ 40 in the culture supernatants were calculated as percentage of maximum signal (cells treated with 1% DMSO without inhibitor). The IC50 values were calculated using the Excel XLfit software.

[2] = system: Aβ40 in brain of wild-type mice; assay: Lowering of Aβ40 in brain of wild-type mice; assay type: in vivo; details: Mus musculus, po; female C57Bl/6J mice, 30 mg/kg per os, 4 h; brain Aβ40 related to the value in the vehicle group; read-out: Aβ40 (wt mice, brain)
Description: Lowering of Aβ40 in Brain of Wild-Type Mice:
Animals and Housing Conditions.
Animals were maintained in a 12/12 h light/dark cycle, with lights starting at 6 a.m., and experiments were conducted during the light phase. Animal housing and experimental procedures were in line with ethical and legal guidelines and were authorized by local veterinary authorities.
Experiment. Female C57Bl/6J mice were treated with a dose of 30 mg/kg of the compounds, 3-4 animals per treatment group. The test compound was dissolved in 5% EtOH, 10% Solutol, and was applied per os at 10 mL/kg. After 4 h, the animals were sacrificed and brain and plasma were collected. The brain was cut into halves and immediately frozen on dry ice. Brain was used for measurement of Aβ40 and plasma was used for determination of compound exposure. […] Brain tissue was homogenized in 2% DEA buffer in a Roche MagnaLyser (20″, 4000 rpm) and subsequently centrifuged for 1 h at 100000 g. DEA was reduced to 0.2% in 50 mM NaCl and one-half of the DEA lysate was passed over an Oasis Solid phase extraction plate (Waters; cat. no. 186000679), which had been activated with MeOH and equilibrated in dH2O (1 mL each). After washes in 10% and 30% MeOH (1 mL each), the Aβ-peptides were eluted in 0.8 mL of 2% NH4OH in 90% MeOH. The eluate was dried over a N2 flow, and the dried sample was reconstituted in 30 μL of AlphaLISA assay buffer. Aβ40 was determined by an AlphaLISA assay (Perkin-Elmer). In a white 96-well, half area microplate (Perkin-Elmer cat. no. 6005561), 20 μL of the reconstituted sample were mixed with 5 μL of biotinylated BAP-24 (specific for C-terminus of Aβ40) (Brockhaus, M.; Grunberg, J.; Rohrig, S.; Loetscher, H.; Wittenburg, N.; Baumeister, R.; Jacobsen, H.; Haass, C. Caspasemediated cleavage is not required for the activity of presenilins in amyloidogenesis and NOTCH signaling. NeuroReport 1998, 9, 1481-1486.) stock=4.4 mg/mL, f.c.5.5 μg/mL), and 5 μL 252Q6 acceptor beads (252Q6 antibody, Invitrogen AMB0062) had been previously conjugated with AlphaLISA Acceptor beads (Perkin-Elmer cat. no. 6772002); final dilution 1:500). The mix was incubated for 1 h at RT in the dark. Then 20 μL of Streptavin-coated Donor Beads (Perkin-Elmer cat. no. 6760002, final dilution 1:125) were added and this final mix was incubated in the dark for another 30 min at RT before RFU was measured in an AlphaScreen Reader (Perkin-Elmer Envision 2104). The value obtained for Aβ40 in the treated animals was related to the value in the vehicle group and is given in %. Alternatively a commercial ELISA was used for Aβ40 determination (Wako ELISA: (“Human/Rat β Amyloid (40) ELISA kit Wako II”; cat nr. 294-64701) following the manufacture's instruction. Also here the Aβ-lowering efficacy was calculated as percentage of the vehicle group.

T1 sequence (P56817 46-501): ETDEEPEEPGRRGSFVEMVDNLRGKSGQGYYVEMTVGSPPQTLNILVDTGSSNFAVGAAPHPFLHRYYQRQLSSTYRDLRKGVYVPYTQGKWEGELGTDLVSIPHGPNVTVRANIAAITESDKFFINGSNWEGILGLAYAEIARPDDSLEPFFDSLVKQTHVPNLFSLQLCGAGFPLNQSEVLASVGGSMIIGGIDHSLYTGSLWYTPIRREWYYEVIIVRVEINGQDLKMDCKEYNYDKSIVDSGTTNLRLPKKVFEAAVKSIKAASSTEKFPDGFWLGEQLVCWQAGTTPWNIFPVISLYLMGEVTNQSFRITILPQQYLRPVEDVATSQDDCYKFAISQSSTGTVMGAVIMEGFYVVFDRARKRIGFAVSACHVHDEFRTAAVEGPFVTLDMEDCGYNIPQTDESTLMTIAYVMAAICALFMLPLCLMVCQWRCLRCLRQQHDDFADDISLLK

SMILES: CC1(C)C(N)=N[C@](C)(c2nc(NC(=O)c3ncc(F)cc3Cl)ccc2F)[C@@H]2CCN=[S@@]21=O [Example 11AB, N-(6-((3aS,4R,8R)-6-amino-4,7,7-trimethyl-8-oxido-3,3a,4,7-tetrahydro-2H-isothiazolo[1,5-a][1,4]thiazin-4-yl)-5-fluoropyridin-2-yl)-3-chloro-5-fluoropicolinamide]
IC50 [1]: 3.5 nM | response vs control in vivo at 30 mg/kg [2]: 100%

SMILES: Cc1cc(Cl)cnc1C(=O)Nc1ccc(F)c([C@@]2(C)N=C(N)C(C)(C)[S@@]3(=O)=NCC[C@@H]23)n1 [Example 12AB, N-(6-((3aS,4R,8R)-6-amino-4,7,7-trimethyl-8-oxido-3,3a,4,7-tetrahydro-2H-isothiazolo[1,5-a][1,4]thiazin-4-yl)-5-fluoropyridin-2-yl)-5-chloro-3-methylpicolinamide]
IC50 [1]: 1.3 nM | response vs control in vivo at 30 mg/kg [2]: 38%

SMILES: CC1(C)C(N)=N[C@](C)(c2nc(NC(=O)c3ncc(C#N)cc3Cl)ccc2F)[C@@H]2CCN=[S@@]21=O [Example 25AB, N-(6-((3aS,4R,8R)-6-amino-4,7,7-trimethyl-8-oxido-3,3a,4,7-tetrahydro-2H-isothiazolo[1,5-a][1,4]thiazin-4-yl)-5-fluoropyridin-2-yl)-3-chloro-5-cyanopicolinamide]
IC50 [1]: 0.5 nM | response vs control in vivo at 30 mg/kg [2]: 56%

SMILES: CC1(C)C(N)=N[C@](C)(c2nc(NC(=O)c3ncc(C#N)cc3Cl)ccc2F)[C@H]2CCN=[S@]21=O [Example 25BA, N-(6-((3aR,4R,8S)-6-amino-4,7,7-trimethyl-8-oxido-3,3a,4,7-tetrahydro-2H-isothiazolo[1,5-a][1,4]thiazin-4-yl)-5-fluoropyridin-2-yl)-3-chloro-5-cyanopicolinamide]
IC50 [1]: 15.5 nM | response vs control in vivo at 30 mg/kg [2]: 117%

SMILES: CC1(C)C(N)=N[C@](C)(c2nc(NC(=O)c3ncc(Cl)cc3Cl)ccc2F)[C@@H]2CCN=[S@@]21=O [Example 29AB, N-(6-((3aS,4R,8R)-6-amino-4,7,7-trimethyl-8-oxido-3,3a,4,7-tetrahydro-2H-isothiazolo[1,5-a][1,4]thiazin-4-yl)-5-fluoropyridin-2-yl)-3,5-dichloropicolinamide]
IC50 [1]: 0.6 nM | response vs control in vivo at 30 mg/kg [2]: 88%

SMILES: Cc1cc(C#N)cnc1C(=O)Nc1ccc(F)c([C@@]2(C)N=C(N)C(C)(C)[S@@]3(=O)=NCC(F)(F)C[C@H]23)n1 [Example 32AA, N-(6-((4aR,5R,9R)-7-amino-3,3-difluoro-5,8,8-trimethyl-9-oxido-2,3,4,4a,5,8-hexahydro-[1,4]thiazino[2,1-f][1,2]thiazin-5-yl)-5-fluoropyridin-2-yl)-5-cyano-3-methylpicolinamide]
IC50 [1]: 1.2 nM | response vs control in vivo at 30 mg/kg [2]: 53%

SMILES: CC1(C)C(N)=N[C@](C)(c2nc(NC(=O)c3ccc(C#N)cn3)ccc2F)[C@H]2CC(F)(F)CN=[S@@]21=O [Example 34AA, N-(6-((4aR,5R,9R)-7-amino-3,3-difluoro-5,8,8-trimethyl-9-oxido-2,3,4,4a,5,8-hexahydro-[1,4]thiazino[2,1-f][1,2]thiazin-5-yl)-5-fluoropyridin-2-yl)-5-cyanopicolinamide]
IC50 [1]: 9.8 nM | response vs control in vivo at 30 mg/kg [2]: 113%

More lines, main results first:

IC50 [1]: 9.8 nM
SMILES: CC1(C)C(N)=N[C@](C)(c2nc(NC(=O)c3ccc(OCF)cn3)ccc2F)[C@@H]2CCN=[S@@]21=O [Example 13AB, N-(6-((3aS,4R,8R)-6-amino-4,7,7-trimethyl-8-oxido-3,3a,4,7-tetrahydro-2H-isothiazolo[1,5-a][1,4]thiazin-4-yl)-5-fluoropyridin-2-yl)-5-(fluoromethoxy)picolinamide]
response vs control in vivo at 30 mg/kg [2]: 86%

IC50 [1]: 6.3 nM
SMILES: CC1(C)C(N)=N[C@](C)(c2nc(NC(=O)c3ccc(OC(F)F)cn3)ccc2F)[C@@H]2CCN=[S@@]21=O [Example 14AB, N-(6-((3aS,4R,8R)-6-amino-4,7,7-trimethyl-8-oxido-3,3a,4,7-tetrahydro-2H-isothiazolo[1,5-a][1,4]thiazin-4-yl)-5-fluoropyridin-2-yl)-5-(difluoromethoxy)picolinamide]
response vs control in vivo at 30 mg/kg [2]: 61%

IC50 [1]: 146 nM
SMILES: CC1(C)C(N)=N[C@](C)(c2nc(NC(=O)c3ccc(OCC(F)(F)C(F)F)cn3)ccc2F)[C@@H]2CCN=[S@@]21=O [Example 15AB, N-(6-((3aS,4R,8R)-6-amino-4,7,7-trimethyl-8-oxido-3,3a,4,7-tetrahydro-2H-isothiazolo[1,5-a][1,4]thiazin-4-yl)-5-fluoropyridin-2-yl)-5-(2,2,3,3-tetrafluoropropoxy)picolinamide]
response vs control in vivo at 30 mg/kg [2]: 100%

IC50 [1]: 8.6 nM
SMILES: COc1cnc(C(=O)Nc2ccc(F)c([C@@]3(C)N=C(N)C(C)(C)[S@@]4(=O)=NCC[C@@H]34)n2)cn1 [Example 16AB, N-(6-((3aS,4R,8R)-6-amino-4,7,7-trimethyl-8-oxido-3,3a,4,7-tetrahydro-2H-isothiazolo[1,5-a][1,4]thiazin-4-yl)-5-fluoropyridin-2-yl)-5-methoxypyrazine-2-carboxamide]
response vs control in vivo at 30 mg/kg [2]: 89%

IC50 [1]: 7.7 nM
SMILES: CC1(C)C(N)=N[C@](C)(c2nc(NC(=O)c3cnc(OC(F)F)cn3)ccc2F)[C@@H]2CCN=[S@@]21=O [Example 26AB, N-(6-((3aS,4R,8R)-6-amino-4,7,7-trimethyl-8-oxido-3,3a,4,7-tetrahydro-2H-isothiazolo[1,5-a][1,4]thiazin-4-yl)-5-fluoropyridin-2-yl)-5-(difluoromethoxy)pyrazine-2-carboxamide]
response vs control in vivo at 30 mg/kg [2]: 82%

IC50 [1]: 15 nM
SMILES: CC1(C)C(N)=N[C@](C)(c2nc(NC(=O)c3ccc(F)cn3)ccc2F)[C@@H]2CCN=[S@@]21=O [Example 27AB, N-(6-((3aS,4R,8R)-6-amino-4,7,7-trimethyl-8-oxido-3,3a,4,7-tetrahydro-2H-isothiazolo[1,5-a][1,4]thiazin-4-yl)-5-fluoropyridin-2-yl)-5-fluoropicolinamide]
response vs control in vivo at 30 mg/kg [2]: 92%

IC50 [1]: 2.8 nM
SMILES: CC1(C)C(N)=N[C@](C)(c2nc(NC(=O)c3ncc(OC(F)F)cc3Cl)ccc2F)[C@@H]2CCN=[S@@]21=O [Example 28AB, N-(6-((3aS,4R,8R)-6-amino-4,7,7-trimethyl-8-oxido-3,3a,4,7-tetrahydro-2H-isothiazolo[1,5-a][1,4]thiazin-4-yl)-5-fluoropyridin-2-yl)-3-chloro-5-(difluoromethoxy)picolinamide]
response vs control in vivo at 30 mg/kg [2]: 100%

IC50 [1]: 90 nM
SMILES: CC1(C)C(N)=N[C@](C)(c2nc(NC(=O)c3ccc(F)cn3)ccc2F)[C@H]2CC(F)(F)CN=[S@@]21=O [Example 33AA, N-(6-((4aR,5R,9R)-7-amino-3,3-difluoro-5,8,8-trimethyl-9-oxido-2,3,4,4a,5,8-hexahydro-[1,4]thiazino[2,1-f][1,2]thiazin-5-yl)-5-fluoropyridin-2-yl)-5-fluoropicolinamide]
response vs control in vivo at 30 mg/kg [2]: 83%
